Results: US8895610B1, “Platinum (IV) compounds targeting zinc finger domains” (priority 2007, dated 2014)
Values joined by “and” are separate entries in the source; they are usually repeats but may differ in a detail not shown here. Equal values may be shown once.

What was measured:
[1] = test system: HIV-1-transfected HeLa host cells (pNL4-3); experiment: Virus release in HIV-transfected HeLa cells (radiolabel, immunoprecipitation); format: cell-based, human; details: vs untreated transfected HeLa cells
From the text: Briefly, HeLa cells were transfected (calcium phosphate method) with the full-length, infectious HIV-1 molecular clone pNL4-3 to examine single-cycle particle production (Freed, 1994). Transfected cells were metabolically radiolabeled, and cell- and virus-associated proteins were immunoprecipitated and quantified as previously described (Waheed and Freed, 2008). Virus release efficiency was reduced in a concentration-dependent manner with FX101 as compared with untreated controls.

IL-13 = experiment: Feline blood serum immunofluorescent bead analysis: IL-13; format: in vivo, cat; details: cats BR, CF
Description: Test sera samples from select felines were analyzed using the Rules-Based Medicine (Austin, Tex.) human multi-analyte for 90 measures from a single sample of less than 0.5 mL. The assay uses immunofluorescent beads to simultaneously measure antibody recognition to individually identifiable colored beads, each conjugated with a specific antibody, within a single well plate. Blood samples were drawn preceding (pretreatment) and following (post treatment) one-month FX101 treatment (from felines in Example 6), and are compared with two uninfected control felines. Human cross-reactive antibodies are commonly used for felines, and are relative rather than quantitative measures. Reductions in TNF-alpha and MMP-2 are evident in treated cats; TIMP-1 (Tissue Inhibitor of Metalloproteinases) is not associated with the downregulation of MMP-2. Both MMP-2 and MMP-9, as well as MCP-1, are considered important contributors to the penetration of virally-infected cells across the BBB (Webster, 2006). Additional comments follow the table.

FIV Petaluma = experiment: p25 antigen evaluation of antiviral activity in MBM cells; format: cell-based, feline; details: for p25 Viral Antigen (OD), average / p25 Viral Antigen (OD), individual wells: 7 days post infection, K+ = 1.195, K− = 0.08, listed as 4
Description: Antiviral activity in MBM was determined by inoculating 200 Tissue Culture Infectious Doses 50% FIV Petaluma (Talbott, 1989) in 100 μL RPMI 1640 medium into quadruplicate wells of 96-well microplates containing 2×10^5 cells in 100 μL medium. The cultures were monitored by measuring FIV p25 capsid protein (Lombardi, 1994) release in the supernatants after 7 days of incubation at 37° C. in 5% CO2 (Table 12). Half the media (without drug) was replaced on days 2 and 6 after infection and initial drug exposure. […] Drugs are identified as: CPA-7 (#1); NAD (#2); cisplatin (#3) and FX101 (#4). […]. […] A minimum of 50% inhibition in vitro is required to offset viral infectivity and replication in vivo.

[2] = molecular target: T1, synthetic peptide F2, the carboxy-terminal zinc finger domain of HIV-1 (Human immunodeficiency virus type 1 group M subtype B, UniProt P12493); details: 100 pmole/microliter solutions, equal volumes; isotopic distribution of platinum at m/z~631
Description: FIGS. 1A and 1B show Time of Flight (TOF) mass spectroscopy (MS) fragmentation pattern of the synthetic peptide F2, the carboxy-terminal zinc finger domain of HIV-1, bound to platinum. […] Equal volumes of F2 with FX101, F2 with ZnCO3, F2 with both FX101 and ZnCO3 were mixed, resulting in four total peptide solutions. Full TOF MS was acquired on the QSTAR at the Johns Hopkins Proteomics Core Facility with 1 uL of original sample diluted 1:10 in 50% methanol with 0.1% formic acid/water and 3 uL of this mixture loaded onto the 2 um New Objective tip and nano-sprayed using ion spray voltage of 1200 eV; mass calibration of Csl mixture was performed prior to sample injection. Mass range 590 kDa (50%) to 10500 kDa (50%) was collected for 1.0 minute.

[3] = molecular target: T1, synthetic peptide F2, the carboxy-terminal zinc finger domain of HIV-1; details: 1:1 metal:F2, 10^−4 mole/liter in PBS
Description: The synthetic peptide F2, the carboxy-terminal zinc finger domain of HIV-1, was examined by ultraviolet-visible absorption spectroscopy for its interaction with various metals. […] Stock solutions of 2×10^−4 mole/liter F2 peptide were prepared in phosphate buffered saline (PBS) without calcium or magnesium; known stock concentrations of Fe(II), Co(II), Zn(II) and Pt(IV) metals were also prepared in PBS. One to one ratios of F2 peptide with each metal were individually combined at room temperature with final concentrations of 10^−4 mole/liter, and spectra were collected at various times using a Nanodrop Spectrophotometer (Thermo Scientific, Inc.) having a xenon flash lamp and requiring <2 microliters of sample deposited directly onto an optical lense.

[NH2][Pt]([NH2])([Cl])([Cl])([Cl])[N+](=O)[O-] [FX101, nitrotrichlorodiamminoPt(IV)]
p24 Gag proteins [1]: greatly reduced | HIV-1 virus release efficiency ([1]; concentration-dependent): greatly reduced | IL-13, relative blood serum measure (IL-13; post treatment (one-month FX101 treatment)): 27 pg/mL and 34 pg/mL | IL-13, relative blood serum measure (IL-13; pretreatment): 15 pg/mL and 12 pg/mL | inhibition (elimination of all measures of virus) by day 7 (FIV Petaluma; 7 days, concentrations used 5 and 20 μM, listed as #4): 100% | p25 Viral Antigen (OD), average (FIV Petaluma; conc 5 μM): 0 OD | p25 Viral Antigen (OD), individual wells (FIV Petaluma; conc 5 μM): 0 OD | p25 Viral Antigen (OD), average (FIV Petaluma; conc 20 μM): 0 OD | p25 Viral Antigen (OD), individual wells (FIV Petaluma; conc 20 μM): 0 OD | direct binding of platinum to F2 peptide by TOF MS [2]: Pt-bound peptide | comparative absorption at 250 nm of metal with F2 peptide [3]: 0.118
